Test results from patent US4448775A, “3-Carbamoyloxymethylcephem derivatives, and antibacterial drugs containing same” (Eisai Co., Ltd., priority 1981, dated 1984).
≈ marks a conversion by molar mass, not a printed value.

Assays:
[1] = tested on: Escherichia coli NIHJ; experiment: Minimal inhibitory concentration, standard agar dilution method of the Japan Society of Chemotherapy; type: cell-based
Procedure: (§1) Minimal inhibitory concentration (MIC, μg/ml) of certain compounds obtained in the above examples was determined in accordance with the standard agar dilution method of the Japan Society of Chemotherapy.

[2] = tested on: Klebsiella pneumoniae EK-6; experiment: as above; type: cell-based; settings: EK6
Procedure: as §1

[3] = tested on: Proteus morganii EP-14; experiment: as above; type: cell-based; settings: Morganella morganii, EP14
Procedure: as §1

[4] = tested on: Proteus vulgaris E-18; experiment: as above; type: cell-based; settings: E18, Proteus vulgaris E-18, lactamase-producing bacterium
Procedure: as §1

[5] = tested on: Pseudomonas aeruginosa EP-174; experiment: as above; type: cell-based; settings: EP174
Procedure: as §1

[6] = tested on: Serratia marcescens ES-75; experiment: as above; type: cell-based; settings: ES75
Procedure: as §1

[7] = tested on: Staphylococcus aureus 209-P; experiment: as above; type: cell-based
Procedure: as §1

[8] = Acute toxicity, LD50 (mouse, oral administration); settings: in vivo
Source text: With reference to the compounds of Example Nos. 2, 3 and 4, all their acute toxicity values [LD50 (mouse, oral administration)] amount to above 4 g/kg.

## NC(=O)OCC1=C(C(=O)O)N2C(=O)[C@@H](NC(=O)[C@H](NC(=O)c3coc4cc(O)c(O)cc4c3=O)c3ccc(O)cc3)[C@H]2SC1 [Example 2, 7β-[D-2-(6,7-Dihydroxychromon-3-carboxamido)-2-(4-hydroxyphenyl)acetamido]-3-carbamoyloxymethyl-3-cephem-4-carboxylic acid]
[1]
  MIC: 0.8 µg/mL (≈ 1.28 µM)
[2]
  MIC: ≤ 0.05 µg/mL
[3]
  MIC: 25 µg/mL (≈ 39.9 µM)
[4]
  MIC: > 100 µg/mL
[5]
  MIC: 0.4 µg/mL (≈ 0.638 µM)
[6]
  MIC: 0.8 µg/mL (≈ 1.28 µM)
[7]
  MIC: 3.13 µg/mL (≈ 5 µM)
[8]
  LD50: > 4000 mg/kg

## CO[C@@]1(NC(=O)[C@H](NC(=O)c2coc3cc(O)c(O)cc3c2=O)c2ccc(O)cc2)C(=O)N2C(C(=O)O)=C(COC(=O)NC(=O)C(Cl)(Cl)Cl)CS[C@@H]21 [Example 3, 7β-[D-2-(6,7-Dihydroxychromon-3-carboxamido)-2-(4-hydroxyphenyl)acetamido]-7α-methoxy-3-trichloroacetylcarbamoyloxymethyl-3-cephem-4-carboxylic acid]
[1]
  MIC: 3.13 µg/mL (≈ 3.9 µM)
[2]
  MIC: ≤ 0.05 µg/mL
[3]
  MIC: 12.5 µg/mL (≈ 15.6 µM)
[4]
  MIC: 3.13 µg/mL (≈ 3.9 µM)
[5]
  MIC: 3.13 µg/mL (≈ 3.9 µM)
[6]
  MIC: 1.56 µg/mL (≈ 1.95 µM)
[7]
  MIC: 6.25 µg/mL (≈ 7.79 µM)
[8]
  LD50: > 4000 mg/kg

## CO[C@@]1(NC(=O)[C@H](NC(=O)c2coc3cc(O)c(O)cc3c2=O)c2ccc(O)cc2)C(=O)N2C(C(=O)O)=C(COC(N)=O)CS[C@@H]21 [Example 4, 7β-[D-2-(6,7-Dihydroxychromon-3-carboxamido)-2-(4-hydroxyphenyl)acetamido]-7α-methoxy-3-carbamoyloxymethyl-3-cephem-4-carboxylic acid]
[1]
  MIC: 1.56 µg/mL (≈ 2.38 µM)
[2]
  MIC: ≤ 0.05 µg/mL
[3]
  MIC: 6.25 µg/mL (≈ 9.52 µM)
[4]
  MIC: 0.8 µg/mL (≈ 1.22 µM)
[5]
  MIC: 1.56 µg/mL (≈ 2.38 µM)
[6]
  MIC: 0.4 µg/mL (≈ 0.609 µM)
[7]
  MIC: 6.25 µg/mL (≈ 9.52 µM)
[8]
  LD50: > 4000 mg/kg
